# Read-outs that look alike come from different tables or passages of the source.
# Legend:
# Fusarium culmorum [1] = assay: microbe, parasite or virus in culture; format: cell-based; settings: read-out: disease control
# [2] = test system: Glomerella lagenarium (Colletotrichum lagenarium); assay: Glomerella lagenarium (Colletotrichum lagenarium) / liquid culture (anthracnose); format: cell-based; settings: Colletotrichum orbiculare, read-out: disease control
# Gaeumannomyces graminis = Gaeumannomyces graminis / liquid culture (take-all of cereals); format: cell-based; settings: compared to untreated control, 4-5 days after application
# [3] = test system: Botryotinia fuckeliana (Botrytis cinerea); assay: Botryotinia fuckeliana (Botrytis cinerea) / liquid culture (gray mould); format: cell-based; settings: 72 h, read-out: disease control
# [4] = test system: Monographella nivalis (Microdochium nivale); assay: Monographella nivalis (Microdochium nivale) / liquid culture (foot rot cereals); format: cell-based; settings: read-out: disease control
# Fusarium culmorum [5] = assay: whole plant or invertebrate; format: in vivo, Fusarium culmorum on wheat spikelets cv. Monsun; settings: in Triticum aestivum, 144 h, read-out: control of Fusarium culmorum
# [6] = test system: Magnaporthe grisea (Pyricularia oryzae); assay: microbe, parasite or virus in culture; format: cell-based; settings: read-out: control of Magnaporthe grisea
# [7] = 200 ppm, compared to untreated control, growth inhibition photometrically 3-4 days after application
# [8] = 200 ppm, compared to untreated control, growth inhibition photometrically 4-5 days after application
Compound,inhibition of growth at 200 ppm (Fusarium culmorum [1]),"inhibition of growth at 200 ppm [2, 7]",inhibition of growth at 20 ppm (Gaeumannomyces graminis),"inhibition of growth at 200 ppm [3, 7]","inhibition of growth at 200 ppm [4, 8]",pest or weed control at 200 ppm (Fusarium culmorum [5]),inhibition of growth at 20 ppm [6],melting point,inhibition of growth at 200 ppm [2],inhibition of growth at 200 ppm [3],inhibition of growth at 200 ppm [4]
"Cc1ccc(F)cc1C#CC(C)(C)NC(=O)c1cnc2c(F)cccc2c1 [Compound F-24, 8-fluoro-N-[3-(5-fluoro-2-methyl-phenyl)-1,1-dimethyl-prop-2-ynyl]quinoline-3-carboxamide]",≥ 80%,≥ 80%,≥ 80%,≥ 80%,≥ 80%,≥ 80%,,,,,
"CCC(C)(C#Cc1ccccc1C)NC(=O)c1cc2cccc(F)c2nc1C (stereo not drawn) [Compound F-14, N-[1-ethyl-1-methyl-3-(o-tolyl)prop-2-ynyl]-8-fluoro-2-methyl-quinoline-3-carboxamide]",≥ 80%,≥ 80%,,≥ 80%,,≥ 80%,≥ 80%,,,,
"Cc1ccc(F)c(C#CC(C)(C)NC(=O)c2cnc3c(F)cccc3c2)c1 [Compound F-45, 8-fluoro-N-[3-(2-fluoro-5-methyl-phenyl)-1,1-dimethyl-prop-2-ynyl]quinoline-3-carboxamide]",≥ 80%,≥ 80%,,≥ 80%,≥ 80%,≥ 80%,,,,,
"Cc1ccccc1C#CC(C)(C)NC(=O)c1cnc2c(F)cccc2c1 [Compound F-47, N-[1,1-dimethyl-3-(o-tolyl)prop-2-ynyl]-8-fluoro-quinoline-3-carboxamide]",≥ 80%,≥ 80%,≥ 80%,≥ 80%,≥ 80%,≥ 80%,≥ 80%,156 to 160 °C,,,
"O=C(NC(C#Cc1ccccc1)CCC(F)(F)F)c1cnc2c(F)cccc2c1 (stereo not drawn) [Compound F-4, 8-fluoro-N-[4,4,4-trifluoro-1-(2-phenylethynyl)butyl]quinoline-3-carboxamide]",≥ 80%,,≥ 80%,≥ 80%,≥ 80%,,≥ 80%,,,,
"C#CC(C)(C)NC(=O)c1cnc2c(F)cccc2c1 [Compound F-54, N-(1,1-dimethylprop-2-ynyl)-8-fluoro-quinoline-3-carboxamide]",≥ 80%,,,,≥ 80%,,,148 to 150 °C,,,
"CC(C)C[C@](C)(C#Cc1ccccc1)NC(=O)c1cnc2c(F)cccc2c1 [Compound G-6, N-[(1R)-1,3-dimethyl-1-(2-phenylethynyl)butyl]-8-fluoro-quinoline-3-carboxamide]",≥ 80%,,≥ 80%,≥ 80%,≥ 80%,,≥ 80%,128 to 130 °C,,,
"COc1ccc(C#CC(C)(C)NC(=O)c2cnc3c(F)cccc3c2)cc1 [Compound F-28, 8-fluoro-N-[3-(4-methoxyphenyl)-1,1-dimethyl-prop-2-ynyl]quinoline-3-carboxamide]",≥ 80%,≥ 80%,,≥ 80%,≥ 80%,≥ 80%,,,,,
"CC(C)C[C@H](C#Cc1ccccc1)NC(=O)c1cnc2c(F)cccc2c1 [Compound G-3, 8-fluoro-N-[(1R)-3-methyl-1-(2-phenylethynyl)butyl]quinoline-3-carboxamide]",≥ 80%,≥ 80%,≥ 80%,≥ 80%,≥ 80%,,≥ 80%,,,,
"CCC(C#Cc1ccccc1)(CC)NC(=O)c1cnc2c(F)cccc2c1 [Compound F-6, N-(1,1-diethyl-3-phenyl-prop-2-ynyl)-8-fluoro-quinoline-3-carboxamide]",≥ 80%,≥ 80%,≥ 80%,≥ 80%,≥ 80%,,,,,,
"COc1ccc(Cl)cc1C#CC(C)(C)NC(=O)c1cnc2c(F)cccc2c1 [Compound F-23, N-[3-(5-chloro-2-methoxy-phenyl)-1,1-dimethyl-prop-2-ynyl]-8-fluoro-quinoline-3-carboxamide]",≥ 80%,≥ 80%,≥ 80%,≥ 80%,≥ 80%,,,,,,
"CCC(C)(C#Cc1ccccc1)NC(=O)c1cc2cccc(F)c2nc1C (stereo not drawn) [Compound F-16, N-(1-ethyl-1-methyl-3-phenyl-prop-2-ynyl)-8-fluoro-2-methyl-quinoline-3-carboxamide]",≥ 80%,≥ 80%,,≥ 80%,≥ 80%,≥ 80%,≥ 80%,,,,
"CC(C)(C#Cc1cccc(C(F)(F)F)c1)NC(=O)c1cnc2c(F)cccc2c1 [Compound F-48, N-[1,1-dimethyl-3-[3-(trifluoromethyl)phenyl]prop-2-ynyl]-8-fluoro-quinoline-3-carboxamide]",≥ 80%,≥ 80%,≥ 80%,≥ 80%,≥ 80%,,≥ 80%,181 to 184 °C,,,
"CC(C)(C#Cc1ccccc1)NC(=O)c1cnc2ccccc2c1 [Compound F-49, N-(1,1-dimethyl-3-phenyl-prop-2-ynyl)quinoline-3-carboxamide]",≥ 80%,≥ 80%,≥ 80%,≥ 80%,≥ 80%,≥ 80%,≥ 80%,136 to 141 °C,,,
"CC(CC#CC1CC1)(CC(F)(F)F)NC(=O)c1cnc2c(F)cccc2c1 (stereo not drawn) [Compound E-1, N-[4-cyclopropyl-1-methyl-1-(2,2,2-trifluoroethyl)but-3-ynyl]-8-fluoro-quinoline-3-carboxamide]",≥ 80%,,,,,,,110 to 112 °C,≥ 80%,≥ 80%,≥ 80%
"CC(C)[C@](C)(C#Cc1ccccc1)NC(=O)c1cnc2c(F)cccc2c1 (single isomer, unassigned) [Compound G-8]",≥ 80%,≥ 80%,≥ 80%,≥ 80%,≥ 80%,,≥ 80%,,,,
"CC(C)(C#Cc1cc(F)cc(F)c1)NC(=O)c1cnc2c(F)cccc2c1 [Compound F-40, N-[3-(3,5-difluorophenyl)-1,1-dimethyl-prop-2-ynyl]-8-fluoro-quinoline-3-carboxamide]",≥ 80%,≥ 80%,,≥ 80%,≥ 80%,≥ 80%,,,,,
"Cc1ccccc1C#CC(C)(NC(=O)c1cnc2c(F)cccc2c1)C(C)C (stereo not drawn) [Compound F-13, 8-fluoro-N-[1-isopropyl-1-methyl-3-(o-tolyl)prop-2-ynyl]quinoline-3-carboxamide]",≥ 80%,≥ 80%,≥ 80%,≥ 80%,≥ 80%,,≥ 80%,138 to 141 °C,,,
"CC(C)C(C#Cc1ccccc1)NC(=O)c1cnc2c(F)cccc2c1 (stereo not drawn) [Compound F-3, 8-fluoro-N-(1-isopropyl-3-phenyl-prop-2-ynyl)quinoline-3-carboxamide]",≥ 80%,≥ 80%,,≥ 80%,≥ 80%,≥ 80%,≥ 80%,156 to 158 °C,,,
"Cc1cccc(C#CC(C)(C)NC(=O)c2cnc3c(F)cccc3c2)c1 [Compound F-39, N-[1,1-dimethyl-3-(m-tolyl)prop-2-ynyl]-8-fluoro-quinoline-3-carboxamide]",≥ 80%,≥ 80%,,≥ 80%,≥ 80%,≥ 80%,,,,,
"CC(C)(C#Cc1ccc(F)cc1F)NC(=O)c1cnc2c(F)cccc2c1 [Compound F-25, N-[3-(2,4-difluorophenyl)-1,1-dimethyl-prop-2-ynyl]-8-fluoro-quinoline-3-carboxamide]",≥ 80%,≥ 80%,≥ 80%,≥ 80%,≥ 80%,≥ 80%,,,,,
"CC(C)C(C)(C#Cc1ccccc1)NC(=O)c1cnc2c(F)cccc2c1 (stereo not drawn) [Compound F-46, 8-fluoro-N-(1-isopropyl-1-methyl-3-phenyl-prop-2-ynyl)quinoline-3-carboxamide]",≥ 80%,≥ 80%,≥ 80%,≥ 80%,≥ 80%,≥ 80%,≥ 80%,118 to 122 °C,,,

# From US11178869B2, “Microbiocidal quinoline (thio)carboxamide derivatives” (priority 2017, dated 2021)
